# Assay results from ChEMBL document CHEMBL1201862, “PubChem BioAssay data set” (2004).
# Activity calls are given as the source filed them.
# What was measured:
# [1] = molecular target: T1, Adenosylmethionine-8-amino-7-oxononanoate aminotransferase (Mycobacterium tuberculosis, UniProt P9WQ81); assay: Mycobacterium tuberculosis BioA enzyme inhibitor Measured in Biochemical System Using Plate Reader - 2163-02_Inhibitor_Dose_CherryPick_Activity.; format: functional, Mycobacterium tuberculosis UT205
# T1 sequence (P9WQ81 whole entry): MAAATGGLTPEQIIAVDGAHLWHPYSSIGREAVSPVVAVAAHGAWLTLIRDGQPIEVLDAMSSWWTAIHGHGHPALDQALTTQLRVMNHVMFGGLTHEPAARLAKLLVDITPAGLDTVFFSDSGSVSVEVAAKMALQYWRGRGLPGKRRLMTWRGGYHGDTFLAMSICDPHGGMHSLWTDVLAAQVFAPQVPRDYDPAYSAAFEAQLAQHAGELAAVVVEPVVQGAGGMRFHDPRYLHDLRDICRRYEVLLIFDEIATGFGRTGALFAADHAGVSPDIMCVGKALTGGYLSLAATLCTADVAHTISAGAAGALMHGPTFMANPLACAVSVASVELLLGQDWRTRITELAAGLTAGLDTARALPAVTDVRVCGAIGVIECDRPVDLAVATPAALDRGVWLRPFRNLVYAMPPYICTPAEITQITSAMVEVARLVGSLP
# [2] = molecular target: T2, Short transient receptor potential channel 4 (Mus musculus, UniProt Q9QUQ5); assay: calcium entry via TRPC4 opening agents – cell-based, HEK293 TRPC4/mu-opioid, Fluo-4 calcium, dose response (AID 434937); format: functional
# T2 sequence (Q9QUQ5 whole entry): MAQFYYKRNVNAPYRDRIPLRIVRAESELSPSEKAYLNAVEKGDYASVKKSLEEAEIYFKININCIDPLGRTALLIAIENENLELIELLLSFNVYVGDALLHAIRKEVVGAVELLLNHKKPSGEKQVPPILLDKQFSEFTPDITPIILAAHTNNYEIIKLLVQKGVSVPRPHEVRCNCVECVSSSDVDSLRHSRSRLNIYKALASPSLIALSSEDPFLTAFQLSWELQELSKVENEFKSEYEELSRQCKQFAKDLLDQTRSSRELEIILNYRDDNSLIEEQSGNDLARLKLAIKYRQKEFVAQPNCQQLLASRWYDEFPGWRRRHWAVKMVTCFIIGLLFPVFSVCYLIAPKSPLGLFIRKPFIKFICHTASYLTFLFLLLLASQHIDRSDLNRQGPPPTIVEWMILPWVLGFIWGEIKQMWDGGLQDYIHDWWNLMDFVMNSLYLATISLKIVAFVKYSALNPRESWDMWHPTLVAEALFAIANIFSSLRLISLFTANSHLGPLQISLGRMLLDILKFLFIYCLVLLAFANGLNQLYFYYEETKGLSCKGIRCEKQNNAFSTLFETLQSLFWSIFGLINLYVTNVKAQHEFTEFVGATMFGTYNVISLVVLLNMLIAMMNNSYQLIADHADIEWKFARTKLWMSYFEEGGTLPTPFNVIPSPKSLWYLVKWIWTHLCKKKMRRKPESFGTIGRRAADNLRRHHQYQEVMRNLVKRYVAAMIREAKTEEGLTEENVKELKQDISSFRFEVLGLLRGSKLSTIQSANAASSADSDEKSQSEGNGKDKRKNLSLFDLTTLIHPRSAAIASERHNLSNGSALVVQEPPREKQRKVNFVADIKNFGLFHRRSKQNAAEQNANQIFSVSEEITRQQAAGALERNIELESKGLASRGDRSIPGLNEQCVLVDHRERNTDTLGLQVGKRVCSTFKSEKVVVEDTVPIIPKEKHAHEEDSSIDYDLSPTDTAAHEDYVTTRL
# [3] = molecular target: T3, Protein RecA (Mycobacterium tuberculosis, UniProt P9WHJ3); assay: Fluorescence Cell-Free Homogeneous Dose Retest to Identify Inhibitors of RecA-Intein Splicing Activity. [Related pubchem assays (depositor defined):AID2097, AID2223, AID489010, AID492950]; format: functional
# T3 sequence (P9WHJ3 whole entry): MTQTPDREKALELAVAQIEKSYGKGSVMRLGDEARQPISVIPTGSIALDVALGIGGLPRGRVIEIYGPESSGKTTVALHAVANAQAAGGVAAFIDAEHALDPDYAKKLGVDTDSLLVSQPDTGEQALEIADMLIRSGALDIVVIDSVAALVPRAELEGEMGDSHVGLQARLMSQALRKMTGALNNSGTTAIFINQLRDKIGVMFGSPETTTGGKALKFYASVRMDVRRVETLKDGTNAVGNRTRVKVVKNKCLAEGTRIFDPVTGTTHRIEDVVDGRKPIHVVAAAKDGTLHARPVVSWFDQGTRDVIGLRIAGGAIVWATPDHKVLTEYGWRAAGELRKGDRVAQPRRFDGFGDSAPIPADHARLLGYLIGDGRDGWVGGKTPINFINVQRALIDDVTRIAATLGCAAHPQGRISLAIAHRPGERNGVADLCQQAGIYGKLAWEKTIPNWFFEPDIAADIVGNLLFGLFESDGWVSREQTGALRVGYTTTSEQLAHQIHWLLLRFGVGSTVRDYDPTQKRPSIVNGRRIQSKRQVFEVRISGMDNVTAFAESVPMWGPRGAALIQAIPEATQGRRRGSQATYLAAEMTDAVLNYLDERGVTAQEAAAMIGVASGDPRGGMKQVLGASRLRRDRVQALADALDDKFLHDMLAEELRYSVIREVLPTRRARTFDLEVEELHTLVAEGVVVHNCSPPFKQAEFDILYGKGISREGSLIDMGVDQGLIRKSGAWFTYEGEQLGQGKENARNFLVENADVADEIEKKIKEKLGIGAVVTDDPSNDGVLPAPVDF
# [4] = molecular target: Large T antigen (Simian virus 40, UniProt P03070); format: functional, Betapolyomavirus macacae;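 note: Confirmatory-stage PubChem screen for compounds that inhibit SV40 T antigen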
# [5] = molecular target: Glucose-6-phosphate 1-dehydrogenase (Homo sapiens, UniProt P11413); assay: inhibition of Homo sapiens G6PD, dose series – biochemical, fluorescence, selectivity assay for P. falciparum G6PD inhibitor project, dose response (AID 504792); format: functional
# [6] = molecular target: T4, Replicative DNA helicase DnaB (Mycobacterium tuberculosis, UniProt P9WMR3); assay: DnaB intein splicing inhibitors, dose response, biochemical, cell-free fluorescence (AID 449749); format: functional
# T4 sequence (P9WMR3 whole entry): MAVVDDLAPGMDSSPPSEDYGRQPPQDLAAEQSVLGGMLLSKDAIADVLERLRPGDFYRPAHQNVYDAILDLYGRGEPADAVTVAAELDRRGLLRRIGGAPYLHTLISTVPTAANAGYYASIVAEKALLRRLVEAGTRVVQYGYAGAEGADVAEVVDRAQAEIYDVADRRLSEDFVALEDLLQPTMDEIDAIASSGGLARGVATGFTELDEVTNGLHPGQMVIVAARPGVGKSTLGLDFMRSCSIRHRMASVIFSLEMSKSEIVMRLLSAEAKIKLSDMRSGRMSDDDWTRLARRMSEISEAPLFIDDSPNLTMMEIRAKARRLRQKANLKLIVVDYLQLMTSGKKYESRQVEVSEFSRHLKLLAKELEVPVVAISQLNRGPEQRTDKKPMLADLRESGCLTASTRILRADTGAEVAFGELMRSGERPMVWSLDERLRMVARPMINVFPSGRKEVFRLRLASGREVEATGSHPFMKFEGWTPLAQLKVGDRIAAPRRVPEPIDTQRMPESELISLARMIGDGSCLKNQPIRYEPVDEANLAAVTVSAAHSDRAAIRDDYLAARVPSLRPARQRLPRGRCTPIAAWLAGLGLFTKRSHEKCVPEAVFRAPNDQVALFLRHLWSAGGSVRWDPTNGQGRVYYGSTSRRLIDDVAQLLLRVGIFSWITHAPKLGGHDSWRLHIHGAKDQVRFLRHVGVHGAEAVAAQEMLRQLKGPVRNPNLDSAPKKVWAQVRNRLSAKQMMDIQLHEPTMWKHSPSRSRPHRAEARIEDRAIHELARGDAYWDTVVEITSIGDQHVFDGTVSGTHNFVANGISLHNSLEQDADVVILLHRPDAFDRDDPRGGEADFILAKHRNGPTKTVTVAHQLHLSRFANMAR
# [7] = molecular target: Beta-galactosidase (Escherichia coli, UniProt Q8VNN2); assay: PubChem AID 485352; format: functional
# [8] = molecular target: T5, Type-1 angiotensin II receptor (Homo sapiens, UniProt P30556); assay: antagonism of angiotensin II type 1 receptor – cell-based, uHTS hits, selectivity assay for APJ receptor antagonist project, dose response (AID 463214); format: functional;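 note: antagonist potency against angiotensin II stimulated AT1 response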
# T5 sequence (P30556 whole entry): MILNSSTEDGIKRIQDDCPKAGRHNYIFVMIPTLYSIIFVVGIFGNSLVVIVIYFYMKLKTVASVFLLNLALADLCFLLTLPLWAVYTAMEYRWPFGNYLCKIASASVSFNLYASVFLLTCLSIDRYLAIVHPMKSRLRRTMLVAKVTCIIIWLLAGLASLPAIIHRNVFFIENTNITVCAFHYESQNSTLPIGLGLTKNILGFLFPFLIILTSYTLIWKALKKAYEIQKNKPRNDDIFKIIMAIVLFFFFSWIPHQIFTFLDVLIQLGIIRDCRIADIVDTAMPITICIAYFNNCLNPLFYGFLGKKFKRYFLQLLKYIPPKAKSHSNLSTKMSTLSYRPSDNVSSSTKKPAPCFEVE
# [9] = molecular target: T6, Streptokinase A (Streptococcus pyogenes serotype M1, UniProt P10520); assay: viability-normalized secreted streptokinase activity reduction – plasminogen activation absorbance, OD405, dose response (AID 1914); format: functional, Streptococcus pyogenes M1 GAS;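 note: secreted streptokinase activity via plasminogen activation per viability signal from cell pellet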
# T6 sequence (P10520 whole entry): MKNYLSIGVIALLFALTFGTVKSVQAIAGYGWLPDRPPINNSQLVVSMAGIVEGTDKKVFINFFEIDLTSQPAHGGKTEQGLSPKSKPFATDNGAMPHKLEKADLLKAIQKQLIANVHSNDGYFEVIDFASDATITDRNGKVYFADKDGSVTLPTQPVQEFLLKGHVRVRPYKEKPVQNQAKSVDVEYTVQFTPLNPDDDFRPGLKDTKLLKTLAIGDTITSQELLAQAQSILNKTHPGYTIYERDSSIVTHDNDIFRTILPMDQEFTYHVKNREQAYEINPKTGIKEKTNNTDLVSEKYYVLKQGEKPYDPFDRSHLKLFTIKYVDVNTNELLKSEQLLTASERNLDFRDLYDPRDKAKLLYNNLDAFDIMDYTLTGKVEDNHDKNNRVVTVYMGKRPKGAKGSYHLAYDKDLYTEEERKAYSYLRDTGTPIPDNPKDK
# [10] = test system: Streptococcus sp. 'group A'; assay: Streptococcus pyogenes SK(-)GAS viability under kanamycin – luminescence, BacTiterGlo, confirmation, counter-screen for streptokinase expression inhibitor project, dose response (AID 1900); format: functional, organism-based
# [11] = test system: Streptococcus; assay: GAS UMAA2166 growth inhibition – luminescence, BacTiterGlo, counter-screen for streptokinase expression inhibitor project, dose response (AID 1915); format: functional, organism-based;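 note: potency for reduction of bacterial viability or growth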
# [12] = molecular target: T7, Heat shock factor protein 1 (Mus musculus, UniProt P38532); assay: enhancement of HSF1-driven luciferase signal – cell-based, NIH3T3, luminescence, dose retest, confirmation (AID 435004); format: functional;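 note: stress induced by proteasome inhibitor MG132 added 30 min after compound; luciferase reporter driven by HSF1 response element in NIH3T3 cells; actives raise luminescence as potentiators of the MG132 stress response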
# T7 sequence (P38532 whole entry): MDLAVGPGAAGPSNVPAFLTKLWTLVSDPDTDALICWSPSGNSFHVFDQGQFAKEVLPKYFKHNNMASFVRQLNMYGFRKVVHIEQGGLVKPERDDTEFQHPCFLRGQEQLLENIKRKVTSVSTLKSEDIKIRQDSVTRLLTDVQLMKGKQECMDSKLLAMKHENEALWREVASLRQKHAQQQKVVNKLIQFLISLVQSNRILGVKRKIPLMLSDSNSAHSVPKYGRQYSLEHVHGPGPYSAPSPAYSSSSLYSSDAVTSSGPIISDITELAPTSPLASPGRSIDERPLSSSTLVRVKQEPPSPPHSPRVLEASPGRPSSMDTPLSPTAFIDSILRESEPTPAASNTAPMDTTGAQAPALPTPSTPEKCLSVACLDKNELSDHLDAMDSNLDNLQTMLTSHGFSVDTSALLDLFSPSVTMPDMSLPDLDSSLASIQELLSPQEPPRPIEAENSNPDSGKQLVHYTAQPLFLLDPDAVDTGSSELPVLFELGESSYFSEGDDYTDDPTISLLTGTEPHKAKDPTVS
# Sequence of Beta-galactosidase (Q8VNN2 whole entry): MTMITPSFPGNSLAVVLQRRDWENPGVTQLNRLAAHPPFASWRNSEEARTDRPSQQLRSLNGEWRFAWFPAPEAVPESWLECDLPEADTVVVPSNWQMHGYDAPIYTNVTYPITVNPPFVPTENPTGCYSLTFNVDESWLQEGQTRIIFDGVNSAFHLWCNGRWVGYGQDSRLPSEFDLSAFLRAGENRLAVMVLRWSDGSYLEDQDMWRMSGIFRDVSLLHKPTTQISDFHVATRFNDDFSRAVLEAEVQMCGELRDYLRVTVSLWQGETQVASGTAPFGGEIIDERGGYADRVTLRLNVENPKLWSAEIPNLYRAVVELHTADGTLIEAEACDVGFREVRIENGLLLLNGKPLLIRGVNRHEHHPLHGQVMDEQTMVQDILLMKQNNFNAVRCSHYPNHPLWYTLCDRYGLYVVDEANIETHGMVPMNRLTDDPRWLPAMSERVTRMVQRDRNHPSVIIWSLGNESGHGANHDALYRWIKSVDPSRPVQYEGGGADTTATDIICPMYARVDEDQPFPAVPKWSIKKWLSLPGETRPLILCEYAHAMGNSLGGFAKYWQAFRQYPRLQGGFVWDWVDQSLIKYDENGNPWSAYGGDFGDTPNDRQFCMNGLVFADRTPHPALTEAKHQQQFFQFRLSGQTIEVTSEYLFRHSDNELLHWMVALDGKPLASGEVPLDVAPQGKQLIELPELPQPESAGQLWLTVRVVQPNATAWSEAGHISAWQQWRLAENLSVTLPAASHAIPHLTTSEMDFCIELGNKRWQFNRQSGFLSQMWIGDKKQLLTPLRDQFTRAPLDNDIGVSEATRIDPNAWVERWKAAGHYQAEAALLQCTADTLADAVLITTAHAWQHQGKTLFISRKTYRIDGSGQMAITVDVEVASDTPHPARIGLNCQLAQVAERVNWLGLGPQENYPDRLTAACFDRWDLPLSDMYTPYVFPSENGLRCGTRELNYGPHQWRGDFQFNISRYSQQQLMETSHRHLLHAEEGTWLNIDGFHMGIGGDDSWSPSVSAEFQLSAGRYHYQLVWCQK
# Sequence of Glucose-6-phosphate 1-dehydrogenase (P11413 whole entry): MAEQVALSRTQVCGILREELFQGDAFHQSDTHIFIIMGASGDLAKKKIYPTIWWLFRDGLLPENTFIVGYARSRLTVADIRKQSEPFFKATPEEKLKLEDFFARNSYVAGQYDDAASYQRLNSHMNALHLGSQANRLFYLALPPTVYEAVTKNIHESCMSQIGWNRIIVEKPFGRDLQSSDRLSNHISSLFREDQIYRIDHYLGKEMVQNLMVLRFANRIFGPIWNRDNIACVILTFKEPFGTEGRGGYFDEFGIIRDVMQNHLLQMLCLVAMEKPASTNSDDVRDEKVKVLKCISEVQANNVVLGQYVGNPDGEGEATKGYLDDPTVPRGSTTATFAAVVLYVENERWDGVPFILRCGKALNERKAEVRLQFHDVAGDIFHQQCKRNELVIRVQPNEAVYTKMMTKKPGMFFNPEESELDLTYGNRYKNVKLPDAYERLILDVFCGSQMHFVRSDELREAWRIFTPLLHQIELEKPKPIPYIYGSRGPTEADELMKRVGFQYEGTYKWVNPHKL
# Sequence of Large T antigen (P03070 whole entry): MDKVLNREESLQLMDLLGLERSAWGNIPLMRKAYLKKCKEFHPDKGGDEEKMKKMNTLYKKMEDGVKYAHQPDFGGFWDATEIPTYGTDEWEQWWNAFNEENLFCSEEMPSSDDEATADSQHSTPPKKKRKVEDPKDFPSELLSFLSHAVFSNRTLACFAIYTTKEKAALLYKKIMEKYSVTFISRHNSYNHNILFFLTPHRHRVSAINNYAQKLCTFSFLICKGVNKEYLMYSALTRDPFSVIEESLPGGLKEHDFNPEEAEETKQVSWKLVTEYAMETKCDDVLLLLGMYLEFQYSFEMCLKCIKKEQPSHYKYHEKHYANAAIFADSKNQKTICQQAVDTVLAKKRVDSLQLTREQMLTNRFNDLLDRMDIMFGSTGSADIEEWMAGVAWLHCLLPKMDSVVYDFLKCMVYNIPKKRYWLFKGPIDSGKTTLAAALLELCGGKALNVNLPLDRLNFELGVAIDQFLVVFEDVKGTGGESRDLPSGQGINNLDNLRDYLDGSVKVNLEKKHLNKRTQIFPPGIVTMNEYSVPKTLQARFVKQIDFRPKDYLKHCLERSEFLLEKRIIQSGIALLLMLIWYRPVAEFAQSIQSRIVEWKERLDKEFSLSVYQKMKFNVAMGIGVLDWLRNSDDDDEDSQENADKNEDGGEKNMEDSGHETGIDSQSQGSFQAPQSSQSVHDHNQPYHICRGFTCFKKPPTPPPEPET
smiles,measurement,setting,value
COc1ccc2c(c1)c(C(=O)CN1CCC3(CC1)OCCO3)c(C)n2Cc1ccccc1,AC50,[1],3.41 µM (active)
CCn1c(N2CCN(S(=O)(=O)CC)CC2)nc2ccccc21,EC50,[2],2.66 µM (active)
CC1(C)Nc2ccc(O)cc2-c2c1ssc2=S,EC50,[3],0.998 µM (active)
same,IC50,[4],> 100 µM (active)
same,IC50,[5],> 80 µM (inactive)
same,AC50,[6],9 µM (active)
Cn1nnc(NC(=S)NC(=O)c2cccc3ccccc23)n1,EC50,[7],> 40 µM (inactive)
same,IC50,[8],> 40 µM (not active)
Cn1c(O)c(N=Nc2nc(-c3ccccc3)cs2)c2ccccc21,EC50,[9],7.09 µM (active)
same,EC50,[7],> 40 µM (inactive)
same,IC50,[8],> 40 µM (not active)
same,EC50,[10],3.21 µM (active)
same,EC50,[11],> 150 µM (not active)
O=C(NCCNC1CCC(c2ccccc2)CC1)c1cccs1 (centres undefined),EC50,[2],0.335 µM (active)
Cc1nnc(SCC(=O)c2cc(C)n(-c3ccc4c(c3)OCO4)c2C)s1,IC50,[5],> 80 µM (inactive)
CN(C)c1cccc2c1c(NC(=O)c1ccc(F)cc1)nn2C,IC50,[5],> 80 µM (inactive)
CCSC1(SCC)N=C(N)C2(C#N)C(c3ccc(OC)c(OC)c3OC)C12C#N (centres undefined),EC50,[12],6.63 µM (active)
same,EC50,[7],> 40 µM (inactive)
same,IC50,[8],27.5 µM (not active)
same,IC50,[4],> 100 µM (active)
O=C(CN1C(=O)C2CC=CCC2C1=O)OCC(=O)c1ccc(Cl)c([N+](=O)[O-])c1 (centres undefined),EC50,[7],> 40 µM (inactive)
same,IC50,[8],16.3 µM (active)
Cc1ccc(NC(=O)CSc2nc(=O)n(CCCN3CCOCC3)c3c2CCCC3)cc1F,AC50,[1],3.18 µM (active)
COc1ccccc1NC(=O)N[C@@H]1CC[C@H](CCn2cc(-c3cccnc3)nn2)O[C@H]1CO,AC50,[1],2.59 µM (active)
